Experimental data reported in US20200268768A1, “CENICRIVIROC COMBINATION THERAPY FOR THE TREATMENT OF FIBROSIS” (Tobira Therapeutics, Inc., priority 2015, published 2020).

Key:
CCR5 = CCR5 (Homo sapiens, UniProt P51681); test: CCR5 antagonism in in vitro, ex vivo and clinical studies; settings: Studies 652-2-201 and 652-2-202
Text: Clinical evidence of CCR2 and CCR5 antagonism was established by measuring changes from baseline in plasma MCP-1 (a ligand of CCR2) concentrations and changes in plasma HIV-RNA (CCR5 co-receptor required for HIV entry), respectively, in these 2 Phase 2 Studies.

[1] = system: HIV-1 infected adult subjects; test: Study 202 biomarkers of inflammation; type: in vivo, human
Method: As an exploratory analysis, levels of inflammation biomarkers MCP-1, sCD14, high sensitivity C-reactive protein [hs-CRP], interleukin-6 [IL-6], D-dimer, and fibrinogen) were measured. Baseline values and changes from baseline at Week 24 and Week 48 of MCP-1, sCD14, hs-CRP, IL-6, D-dimer, and fibrinogen are summarized in Table 22.
The sCD14 samples were originally analyzed in 2 separate batches: Batch 1 included samples leading up to the Week 24 primary analysis and Batch 2 included Week 32 and Week 48 (end of study) samples. A repeat analysis of archived samples all analyzed in one batch was conducted for consistency in analysis across time points. To control for the effects of covariates, a linear mixed-model repeated-measures analysis was conducted on the changes from baseline in sCD14 (analysis dated September 2013).

[2] = Chronic (3- and 9-month) monkey toxicity studies; type: in vivo
[3] = Tissue distribution in rodents; type: in vivo
Text: Infiltration of various immune cell populations, resulting in inflammation, is a central pathogenic feature following acute- and chronic liver injury. Chronic liver inflammation leads to continuous hepatocyte injury which can lead to fibrosis, cirrhosis, ESLD, and HCC. Interactions between intra-hepatic immune cells lead to increased activation and migration of Kupffer cells and HSCs and are critical events for developing liver fibrosis. Additionally, there is increasing evidence of the role of CCR2 and CCR5 in the pathogenesis of liver fibrosis. These members of the C-C chemokine family are expressed by pro-fibrogenic cells including pro-inflammatory monocytes and macrophages, Kupffer cells, and HSCs. CCR2 signaling plays an important role in the pathogenesis of renal fibrosis through regulation of bone marrow-derived fibroblasts. CCR2- and CCR5-positive monocytes as well as CCR5-positive T lymphocytes are attracted by locally released MCP-1 and RANTES, and can contribute to chronic interstitial inflammation in the kidney. […] Disruption of the intestinal microbiota and its downstream effects on the gut-liver axis both play an important role in metabolic disorders such as obesity, non-alcoholic fatty liver disease (NAFLD) and non-alcoholic steatohepatitis (NASH).

CCR5, sequence (P51681 whole entry): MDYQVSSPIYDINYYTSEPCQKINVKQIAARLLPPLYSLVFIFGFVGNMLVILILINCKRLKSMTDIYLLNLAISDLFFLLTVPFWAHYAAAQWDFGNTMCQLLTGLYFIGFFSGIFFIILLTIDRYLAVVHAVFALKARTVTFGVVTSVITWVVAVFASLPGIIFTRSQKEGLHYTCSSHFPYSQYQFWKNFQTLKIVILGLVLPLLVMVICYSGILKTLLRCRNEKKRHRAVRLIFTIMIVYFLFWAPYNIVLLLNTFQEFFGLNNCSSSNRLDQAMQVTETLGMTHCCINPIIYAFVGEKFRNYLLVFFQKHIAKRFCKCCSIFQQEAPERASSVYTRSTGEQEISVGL

## CCCCOCCOc1ccc(-c2ccc3c(c2)C=C(C(=O)Nc2ccc([S@@+]([O-])Cc4cncn4CCC)cc2)CCCN3CC(C)C)cc1 [CVC, (S)-8-[4-(2-Butoxyethoxy)phenyl]-1-isobutyl-N-(4-{[(1-propyl-1H-imidazol-5-yl)methyl]sulfinyl}phenyl)-1,2,3,4-tetrahydro-1-benzazocine-5-carboxamide]
CCR5
  Antagonism of CCR5: potent and concentration-dependent antagonism
[1]; CVC 100 mg, Week 12
  sCD14 (original values) change from baseline, mean: -140000 pg/mL
  sCD14 (original values) change from baseline, median: -160000 pg/mL
[1]; CVC 100 mg, Week 24
  D-dimer change from baseline, mean: -32 ng/mL
  D-dimer change from baseline, median: -1.0 ng/mL
  Fibrinogen change from baseline, mean: -3 mg/dL
  Fibrinogen change from baseline, median: -14 mg/dL
  IL-6 change from baseline, mean: 0.42 pg/mL
  IL-6 change from baseline, median: 0.00 pg/mL
  MCP-1 change from baseline, mean: 493 pg/mL
  MCP-1 change from baseline, median: 429 pg/mL
  hs-CRP change from baseline, mean: -0.16 mg/dL
  hs-CRP change from baseline, median: -0.03 mg/dL
  sCD14 (original values) change from baseline, mean: -190000 pg/mL
  sCD14 (original values) change from baseline, median: -180000 pg/mL
[1]; CVC 100 mg, Week 32
  sCD14 (original values) change from baseline, mean: 110000 pg/mL
  sCD14 (original values) change from baseline, median: 120000 pg/mL
[1]; CVC 100 mg, Week 48
  D-dimer change from baseline, mean: -41 ng/mL
  D-dimer change from baseline, median: -1.0 ng/mL
  Fibrinogen change from baseline, mean: 11 mg/dL
  Fibrinogen change from baseline, median: 15 mg/dL
  IL-6 change from baseline, mean: 0.29 pg/mL
  IL-6 change from baseline, median: 0.00 pg/mL
  MCP-1 change from baseline, mean: 636 pg/mL
  MCP-1 change from baseline, median: 523 pg/mL
  hs-CRP change from baseline, mean: -0.08 mg/dL
  hs-CRP change from baseline, median: -0.01 mg/dL
  sCD14 (original values) change from baseline, mean: 100000 pg/mL
  sCD14 (original values) change from baseline, median: 100000 pg/mL
[1]; CVC 200 mg, Week 12
  sCD14 (original values) change from baseline, mean: -230000 pg/mL
  sCD14 (original values) change from baseline, median: -210000 pg/mL
[1]; CVC 200 mg, Week 24
  D-dimer change from baseline, mean: -64 ng/mL
  D-dimer change from baseline, median: -50 ng/mL
  Fibrinogen change from baseline, mean: -7 mg/dL
  Fibrinogen change from baseline, median: -8 mg/dL
  IL-6 change from baseline, mean: 0.81 pg/mL
  IL-6 change from baseline, median: 0.00 pg/mL
  MCP-1 change from baseline, mean: 753 pg/mL
  MCP-1 change from baseline, median: 695 pg/mL
  hs-CRP change from baseline, mean: -0.04 mg/dL
  hs-CRP change from baseline, median: -0.04 mg/dL
  sCD14 (original values) change from baseline, mean: -230000 pg/mL
  sCD14 (original values) change from baseline, median: -190000 pg/mL
[1]; CVC 200 mg, Week 32
  sCD14 (original values) change from baseline, mean: 20000 pg/mL
  sCD14 (original values) change from baseline, median: -20000 pg/mL
[1]; CVC 200 mg, Week 48
  D-dimer change from baseline, mean: -70 ng/mL
  D-dimer change from baseline, median: -50 ng/mL
  Fibrinogen change from baseline, mean: -10 mg/dL
  Fibrinogen change from baseline, median: -13 mg/dL
  IL-6 change from baseline, mean: -0.04 pg/mL
  IL-6 change from baseline, median: 0.00 pg/mL
  MCP-1 change from baseline, mean: 900 pg/mL
  MCP-1 change from baseline, median: 756 pg/mL
  hs-CRP change from baseline, mean: -0.18 mg/dL
  hs-CRP change from baseline, median: -0.04 mg/dL
  sCD14 (original values) change from baseline, mean: -40000 pg/mL
  sCD14 (original values) change from baseline, median: -40000 pg/mL
[2]; 1000 mg/kg/day, chronic (3- and 9-month) monkey toxicity studies
  Plasma MCP-1 levels over controls: ~5 fold
[2]; high dose of 1000 mg/kg/day
  Inflammation in clinical pathology parameters or any tissue, including the liver, by microscopic evaluation: No indication of inflammation
[3]
  Tissue distribution: high distribution in the liver, mesenteric lymph node, and intestine
